Experimental data reported in patent publication US20250122253A1, “REGULATING MICROTUBULE DYNAMICS AS A THERAPEUTIC TARGET FOR NERVE REPAIR” (City University of Hong Kong, priority 2023, published 2025).

Tests used:
pHDAC5 = assay: Western blot of pHDAC5 in sciatic nerve segments 0-6 mm distal to the crush site; type: in vivo, mice; settings: regenerating axons of sciatic nerves 3 days post-injury
Experimental: Ipsilateral L4/5 DRG neurons were harvested at various time points following sciatic nerve injury as indicated. Sciatic nerves were harvested 3 days after crush injury and segmented into 0-6 mm distal to the crush site. Each protein sample was pooled from 3 mice. DRG neurons and segmented sciatic nerves were mechanically dissociated with protein lysis buffer, and subjected to measurement of protein concentration using protein BCA assay (Pierce). Protein lysate (30 μg) was separated on 4-12% NuPAGE Tris-Glycine precast gel (Invitrogen). Protein was then transferred onto a PVDF membrane (Bio-Rad) and blocked with 5% non-fat milk (Bio-Rad) in TBS-T. The membrane was incubated with anti-FMN2 (1:500; ProteinTech), anti-phosphorylated HDAC5 (1:500, ThermoFisher), anti-HDAC5 (1:500, Novus Biologicals), anti-acetylated tubulin (1:10,000; Sigma-Aldrich), anti-NeuN (1:500; Millipore), anti-SOX10 (1:500; Abcam), anti-IBA-1 (1:1,000; Wako), anti-GFP (1:1,000; Cell Signaling), and anti-GAPDH antibodies (1:2,000; ProteinTech) as loading controls. The membrane was incubated with secondary antibody conjugated with horseradish peroxidase (1:2,000; Thermo-Fisher). Signals were detected using West Femto Maximum Sensitivity Substrate Kit (Thermo Scientific). […] Band intensities were measured using Image Lab software (Bio-Rad). […]

[1] = tested on: gastrocnemius and interosseous muscles; assay: Electromyography (EMG) recording of CMAP amplitude; type: in vivo, mice
Experimental: Electromyography (EMG) recording was performed on anesthetized mice as described. Briefly, mice were anesthetized with ketamine (100 mg/kg)/xylazine (10 mg/kg), and placed on a heat pad set to 37° C. to avoid hypothermia during the course of EMG recordings. Baseline EMG were recorded before sciatic nerve crush injury using custom-made monopolar Teflon-coated electrodes. Following sciatic nerve crush injury, EMG were recorded on a weekly basis for one month (days 7, 14, 21 and 28). For EMG recordings of proximal gastrocnemius muscle, recording electrode was inserted into the gastrocnemius muscle, and Achilles tendon electrode as a reference. For EMG recordings of distal interosseous muscle, recording electrode and reference electrode was inserted into first and fourth muscle of the same paw, respectively. Sciatic nerve was then stimulated proximally or distally, and both proximal and distal stimulations were used for CMAP of interosseous muscle. Only proximal stimulation was used for CMAP of the gastrocnemius muscle. The mean CMAP amplitude was recorded (Blackrock microsystem, USA) and calculated (Spike 2, UK).
To examine the therapeutic potential of metaxalone, adult mice received daily intraperitoneal injection of metaxalone at 10 mg/kg immediately after injury for 21 consecutive days (i.e., metaxalone treatment) or delaying daily intraperitoneal injection of metaxalone at 10 mg/kg to 24 hours post-injury for 20 consecutive days (i.e., delayed metaxalone treatment), and all metaxalone treatments ended on day 21 post-injury. The mice were then subjected to sensory and motor function recovery tests and weekly EMG recordings for 28 days post-injury.

SMILES: Cc1cc(C)cc(OCC2CNC(=O)O2)c1 (centres unmarked) [metaxalone]
- protein expression of pHDAC5 (pHDAC5): substantial increase
- muscle activities in proximal gastrocnemius vs vehicle controls, delayed treatment ([1]; delayed treatment, week 1 to 3 post-injury): significant improvement
- muscle activity in interosseous muscles vs vehicle controls, delayed treatment ([1]; delayed treatment, week 2-3 post-injury): significant increase
- muscle activity in most distal interosseous muscles vs vehicle controls ([1]; immediate treatment, first 3 weeks post-injury): reached significance levels
- muscle activities in proximal gastrocnemius vs vehicle controls ([1]; immediate treatment, week 1 to 3 post-injury): significant improvement
